Test results published in patent US20230381192A1, “METHODS FOR CONTROLLING AND PREDICTING RECOVERY AFTER NMBA ADMINISTRATION” (Cornell University, priority 2020, published 2023).

System: Rhesus monkeys
Test: Spontaneous recovery from NMB (twitch 5% to 95% of baseline) after bolus or infusion in Rhesus monkeys under isoflurane
Format: in vivo, Rhesus monkey
Conditions: for 5%-95% Interval: mean ± SD
Experimental: Rhesus monkeys under isoflurane anesthesia were administered a bolus dose of either RP2000 or RP1000 at a dose equal to 1× to 10× the ED95 in Rhesus monkeys of the administered compound (ED95,Rp1000=0.040 mg/kg; ED95,RP2000=0.053 mg/kg). Twitch (0.15 Hz) and TOF (2 Hz×2 seconds) were recorded throughout the 6 -10 hours experiments. Time to spontaneous recovery after bolus administration, characterized by recovery of twitch from 5% to 95% of baseline was measured.
Separately, continuous infusions of 20-180 minutes duration were given (to separate subjects), and after discontinuation of infusion, time to spontaneous recovery of NMB, characterized by recovery of twitch from 5% to 95% of baseline was measured.

With `COc1ccc(C[C@@H]2c3cc(OC)c(OC)cc3CC[N@@+]2(C)CCCOC(=O)/C=C/C(=O)OCCC[N@+]2(C)CCc3cc(OC)c(OC)cc3[C@H]2Cc2ccc(OC)c(OC)c2)cc1OC.[Cl-].[Cl-]` [RP1000] the “ED95 in Rhesus monkeys” value (Rhesus monkeys, isoflurane anesthesia) was 0.040 mg/kg, the “5%-95% Interval” value (after continuous infusion of 20-180 minutes) was 13.1 ± 3.7 min and the “5%-95% Interval” value (bolus dose 0.05 mg/kg) was 15.3 ± 7.5 min. For the same compound, the “5%-95% Interval” value (bolus dose 0.10 mg/kg) was 14.3 ± 6.5 min, the “5%-95% Interval” value (bolus dose 0.20 mg/kg) was 13.3 ± 4.4 min and the “5%-95% Interval” value (bolus dose 0.40 mg/kg) was 15.5 ± 5.1 min.
